Experimental data taken from article PMC4367896, “Microbial host selection affects intracellular localization and activity of alcohol-O-acetyltransferase” (Microbial Cell Factories, 2015).

Experiments:
Settings in all cases: 500 mM ethanol, 0.5 mM acetyl-CoA, pH 7.4, 30 °C
Atf-K.l = target: T1, Atf-K.l (Kluyveromyces lactis, UniProt Q6CJX7); assay: headspace GC of ethyl acetate, whole cell lysate; format: biochemical
T1 construct: gene KLLA0_F15202g; C-terminal GFP fusion (reporter); expressed in S. cerevisiae (pYKLG) and E. coli BL21(DE3) (pKLG)
T1 sequence (Q6CJX7 1-517): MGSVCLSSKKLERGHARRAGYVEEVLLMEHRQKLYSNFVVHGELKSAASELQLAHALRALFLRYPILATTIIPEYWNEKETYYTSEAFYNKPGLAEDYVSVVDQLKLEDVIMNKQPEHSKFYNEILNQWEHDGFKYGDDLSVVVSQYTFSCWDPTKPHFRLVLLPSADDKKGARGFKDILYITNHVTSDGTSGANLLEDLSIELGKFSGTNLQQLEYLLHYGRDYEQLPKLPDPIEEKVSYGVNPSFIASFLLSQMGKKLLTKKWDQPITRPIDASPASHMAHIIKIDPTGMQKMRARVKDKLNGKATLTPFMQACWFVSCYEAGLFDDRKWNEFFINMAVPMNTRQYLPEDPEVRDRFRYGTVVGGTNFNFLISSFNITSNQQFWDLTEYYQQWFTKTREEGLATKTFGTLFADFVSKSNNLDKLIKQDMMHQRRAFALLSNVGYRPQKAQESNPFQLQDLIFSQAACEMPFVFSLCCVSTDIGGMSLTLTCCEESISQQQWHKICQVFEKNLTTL

Atf-S.p = target: T2, Atf-S.p (Saccharomyces pastorianus, UniProt Q12678); assay: headspace GC of ethyl acetate, whole cell lysate; format: biochemical
T2 construct: gene ATF1_2; C-terminal GFP fusion (reporter); expressed in S. cerevisiae (pYSPG) and E. coli BL21(DE3) (pSPG)
T2 sequence (Q12678 1-545): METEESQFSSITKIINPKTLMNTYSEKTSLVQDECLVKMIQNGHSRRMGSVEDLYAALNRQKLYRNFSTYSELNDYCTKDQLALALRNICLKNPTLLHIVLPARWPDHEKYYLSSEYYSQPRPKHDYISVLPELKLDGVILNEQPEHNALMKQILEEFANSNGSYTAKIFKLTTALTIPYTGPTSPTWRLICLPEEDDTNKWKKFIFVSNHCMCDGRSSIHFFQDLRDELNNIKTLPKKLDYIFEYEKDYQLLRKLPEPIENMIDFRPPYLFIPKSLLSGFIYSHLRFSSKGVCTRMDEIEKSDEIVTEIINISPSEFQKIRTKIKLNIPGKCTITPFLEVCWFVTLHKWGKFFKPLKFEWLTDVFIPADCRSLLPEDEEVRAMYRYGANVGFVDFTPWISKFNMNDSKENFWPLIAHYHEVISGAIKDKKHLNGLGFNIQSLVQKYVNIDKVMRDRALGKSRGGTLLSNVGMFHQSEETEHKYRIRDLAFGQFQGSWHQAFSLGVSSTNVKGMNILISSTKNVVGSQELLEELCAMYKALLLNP

Atf-P.a = target: T3, Atf-P.a (Hansenula anomala, UniProt H6UWN0); assay: headspace GC of ethyl acetate, whole cell lysate; format: biochemical
T3 construct: gene WAN_10494; C-terminal GFP fusion (reporter); expressed in S. cerevisiae (pYPAG) and E. coli BL21(DE3) (pPAG)
T3 sequence (H6UWN0 1-427): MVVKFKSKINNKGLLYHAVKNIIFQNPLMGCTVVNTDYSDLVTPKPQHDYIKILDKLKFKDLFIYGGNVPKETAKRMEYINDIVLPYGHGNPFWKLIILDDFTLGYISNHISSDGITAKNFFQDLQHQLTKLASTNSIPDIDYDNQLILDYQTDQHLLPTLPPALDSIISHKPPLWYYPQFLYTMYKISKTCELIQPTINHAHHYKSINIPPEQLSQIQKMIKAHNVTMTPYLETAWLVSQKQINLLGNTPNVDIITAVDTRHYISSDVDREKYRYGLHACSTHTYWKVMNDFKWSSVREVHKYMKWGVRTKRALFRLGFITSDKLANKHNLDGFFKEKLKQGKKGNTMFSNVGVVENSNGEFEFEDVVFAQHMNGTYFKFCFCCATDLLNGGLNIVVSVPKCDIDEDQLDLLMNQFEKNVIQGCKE

Atf-S.l = target: T4, Atf-S.l (Solanum lycopersicum, UniProt Q6QLX4); assay: headspace GC of ethyl acetate, whole cell lysate; format: biochemical
T4 construct: gene AAT1; C-terminal GFP fusion (reporter); expressed in S. cerevisiae (pYSLG) and E. coli BL21(DE3) (pSLG); N-terminus from primer MANILPI
T4 sequence (Q6QLX4 1-442): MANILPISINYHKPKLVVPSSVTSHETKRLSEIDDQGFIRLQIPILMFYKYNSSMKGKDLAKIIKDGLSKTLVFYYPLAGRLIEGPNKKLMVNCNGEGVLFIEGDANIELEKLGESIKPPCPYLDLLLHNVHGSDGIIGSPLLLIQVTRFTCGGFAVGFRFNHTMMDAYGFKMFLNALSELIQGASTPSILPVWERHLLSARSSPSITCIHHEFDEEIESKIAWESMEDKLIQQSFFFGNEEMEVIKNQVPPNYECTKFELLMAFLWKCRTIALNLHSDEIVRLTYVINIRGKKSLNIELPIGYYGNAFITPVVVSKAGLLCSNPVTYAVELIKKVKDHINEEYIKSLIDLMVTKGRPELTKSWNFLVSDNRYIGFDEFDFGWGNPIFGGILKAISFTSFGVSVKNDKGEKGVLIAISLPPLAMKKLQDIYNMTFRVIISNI

Atf1-S.c = target: T5, Atf1-S.c (Saccharomyces cerevisiae, UniProt P40353)
T5 sequence (P40353 1-525): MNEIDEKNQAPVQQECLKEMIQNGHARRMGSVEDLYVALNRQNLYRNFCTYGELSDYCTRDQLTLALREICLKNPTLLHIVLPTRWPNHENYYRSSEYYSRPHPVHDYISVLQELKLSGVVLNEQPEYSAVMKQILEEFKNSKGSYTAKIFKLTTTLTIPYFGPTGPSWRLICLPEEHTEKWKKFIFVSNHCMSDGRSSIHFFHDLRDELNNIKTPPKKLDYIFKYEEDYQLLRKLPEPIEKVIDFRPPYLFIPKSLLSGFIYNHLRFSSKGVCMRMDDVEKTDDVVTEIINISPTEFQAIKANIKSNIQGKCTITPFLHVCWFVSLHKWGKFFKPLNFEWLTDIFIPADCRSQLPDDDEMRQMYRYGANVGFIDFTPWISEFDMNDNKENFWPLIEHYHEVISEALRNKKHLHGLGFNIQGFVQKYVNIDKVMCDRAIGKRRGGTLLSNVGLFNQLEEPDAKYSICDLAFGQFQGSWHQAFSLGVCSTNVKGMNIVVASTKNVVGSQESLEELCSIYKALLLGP

Atf2-S.c = target: T6, Atf2-S.c (Saccharomyces cerevisiae, UniProt P53296)
T6 sequence (P53296 1-535): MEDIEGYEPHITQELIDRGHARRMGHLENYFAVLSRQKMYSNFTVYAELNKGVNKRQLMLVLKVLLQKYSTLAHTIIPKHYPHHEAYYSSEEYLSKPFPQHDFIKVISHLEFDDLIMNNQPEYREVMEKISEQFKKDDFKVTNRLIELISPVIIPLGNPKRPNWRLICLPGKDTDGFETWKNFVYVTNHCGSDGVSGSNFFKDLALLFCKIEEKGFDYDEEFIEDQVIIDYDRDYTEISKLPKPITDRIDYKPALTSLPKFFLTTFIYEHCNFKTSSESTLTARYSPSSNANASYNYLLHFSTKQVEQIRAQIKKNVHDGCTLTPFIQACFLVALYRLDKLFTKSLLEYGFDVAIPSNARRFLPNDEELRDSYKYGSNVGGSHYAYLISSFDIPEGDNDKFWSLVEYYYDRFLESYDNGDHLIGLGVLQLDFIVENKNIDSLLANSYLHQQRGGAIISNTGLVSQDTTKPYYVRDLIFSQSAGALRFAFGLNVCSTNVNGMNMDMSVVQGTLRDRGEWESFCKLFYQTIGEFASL

SMILES: CC(=O)SCCNC(=O)CCNC(=O)[C@H](O)C(C)(C)COP(=O)(O)OP(=O)(O)OC[C@H]1O[C@@H](n2cnc3c(N)ncnc32)[C@H](O)[C@@H]1OP(=O)(O)O [acetyl-CoA]
- headspace GC of ethyl acetate, whole cell lysate (Atf-K.l): AATase activity was measured using ethanol and acetyl-CoA as substrates
- headspace GC of ethyl acetate, whole cell lysate (Atf-S.p): AATase activity was measured using ethanol and acetyl-CoA as substrates
- headspace GC of ethyl acetate, whole cell lysate (Atf-P.a): AATase activity was measured using ethanol and acetyl-CoA as substrates
- headspace GC of ethyl acetate, whole cell lysate (Atf-S.l): AATase activity was measured using ethanol and acetyl-CoA as substrates
- headspace GC of ethyl acetate, whole cell lysate (Atf1-S.c): AATase activity was measured using ethanol and acetyl-CoA as substrates
- headspace GC of ethyl acetate, whole cell lysate (Atf2-S.c): AATase activity was measured using ethanol and acetyl-CoA as substrates
